Experiment [1] deals with 5 different melanoma cells lines. In words: CCK-8 proliferation assay, 5 melanoma cell lines with distinct mutation profiles. The settings on record: 20 μM 1-benzyl I3C, 200 μM I3C, 48 hours. Type of experiment: cell-based, human. On the procedure:
The same treatment regime was repeated on multiple melanoma cell lines with 20 μM 1-benzyl I3C and 200 μM I3C for 48 hours to compare the relative sensitivities of the different cell lines with distinct mutation profiles to 1-benzyl I3C and I3C. Cells were treated with 20 μM 1-benzyl I3C every 24 hours for 72 hours and harvested at 24, 48 and 72 hours for western blot and flow cytometric analysis. Cells were treated with 20 μM LiCl or 10 μM BIO for 48 hours before harvesting them for western blots.
Subsequently inhibition of proliferation was assessed using Cell counting Kit-8 (Dojindo) as per the protocol in the user's manual. Briefly, 50 μl of the CCK-8 solution was added to each well along with 450 μl media and incubated for 2-3 hours. The absorbance was read at 450 nm and % inhibition was calculated for each condition standardizing DMSO to zero using the formula: [(100−Value of treatment/Value of DMSO treated control)×100]

Experiment [2] has as its system LRP5/6. In words: Western blot of Wnt co-receptor. It is filed as cell-based, human. As to conditions: melanoma cell lines, 20 μM 1-benzyl I3C. The method, then:
(§1) Western Blot analyses of samples electrophoretically fractionated on 12% acrylamide gels were carried out as previously described (Wagle et al., J. Clin. Oncol. 2011. 29(22):3085-3096; Nguyen et al., Chem. Biol. Interact. 2010. 186(3):255-266). Enhanced chemiluminescence (ECL) Lightening reagents were used to visualize the primary antibody bound protein bands in nitrocellulose membranes and the results captured on ECL Autoradiography Film (GE Healthcare, Piscataway, N.J.). The western blots employed the following primary antibodies: mouse anti-MITF-M (Thermo-scientific), mouse anti-HSP 90 (BD Biosciences), mouse anti-CDK2, rabbit anti-CDK4, rabbit anti-CDK-6, mouse anti-rabbit BRAF, goat anti-LEF-1, rabbit anti-AXIN, mouse anti-BCL2, (Santa Cruz), rabbit anti-P21, mouse anti-Cyclin D1, rabbit anti-MEK-p, rabbit anti-MEK1/2, rabbit anti-GSK3β rabbit anti-LRP6, rabbit anti-LRP6-phospho (Cell signaling), mouse anti-β-catenin (Invitrogen).

Experiment [3] relates to CDK 2, 4, 6. Nature of the experiment: Western blot of key cell cycle regulators. Type of experiment: cell-based, human. As to conditions: melanoma cell lines, 1-benzyl I3C, 24, 48, 72 hours. On the procedure: as §1
Experiment [4] has as its system Wnt signaling pathway. In words: Immunofluorescence of tumor xenograft sections for Wnt signaling pathway. As to conditions: 1-benzyl I3C treated tumor xenografts vs DMSO. It is filed as in vivo, human. The method, then: Approximately 1 million G361 melanoma cells in a total volume of 0.1 ml of Matrigel were injected subcutaneously into each lateral flank of NIH III athymic nude mice. The resulting tumors were allowed to grow to a mean starting volume of 146±10 mm^3. The animals were then randomized into two groups; a vehicle control group that was treated with DMSO and an I3C treated group that were injected daily with 200 mg/kg body weight of I3C. The resulting tumor volumes were measured every other day for four weeks using calipers. The tumor volumes were calculated using the standard formula: […], and changes in tumor volumes were calculated using the formula: 100+{(Tf−Ti)/Ti×100}, where Tf is the final mean tumor volume and Ti is the initial mean tumor volume. At terminal sacrifice, tumor xenografts were harvested, and a portion of each tumor was fixed in 4% para-formaldehyde for 1 hour at room temperature, followed by a phosphate-buffered saline (PBS) wash and subsequently immersed in […] overnight at 4° C. The resulting tissues were embedded in OCT and 10 μm thin sections were taken for immunofluorescence studies.

The test system of experiment [5] is normal epidermal melanocytes. In words: CCK-8 proliferation assay, normal epidermal melanocytes. Type of experiment: cell-based. As to conditions: 1-benzyl I3C treatment.
Experiment [6] has as its system LEF1. Nature of the experiment: Chromatin immunoprecipitation, LEF1 at MITF-M promoter. It is filed as cell-based, human. As to conditions: G361 cells, 20 μM 1-benzyl I3C, 48 hours.
Experiment [7] relates to CDK4. Nature of the experiment: Western blot of CDK4. Type of experiment: cell-based, human. The settings on record: G-361 cells, 48 hours; 200 μM I3C, 10 μM Vemurafenib or 10 μM U0126. On the procedure:
as §1

Experiment [8] concerns the target T1, BRAF-V600E (Homo sapiens, UniProt P15056, V600E).
T1 construct: BRAF-V600E was immunoprecipitated from untreated G-361 cells and incubated in vitro; endogenous in cells; host or cells: G-361 human melanoma cells (ATCC)
Nature of the experiment: In vitro BRAF kinase assay, in-vitro treated BRAF-V600E from G-361 cells. It is filed as biochemical. As to conditions: pre-incubated 2 hours; 200 μM or 400 μM I3C. On the procedure: (§2) BRAF was pulled down from the cell lysates using anti-BRAF antibodies bound to protein G-coupled Sepharose beads, while IgG was used as a negative control. Post-immunoprecipitation supernatants were probed with anti BRAF antibody by western blots to determine pull-down efficiency. […] The reactions were terminated by adding 4× sodium dodecyl sulfate (SDS) sample buffer and boiling the mixture at 100° C. for 5 min. The samples were then electrophoresed, immunoblotted and probed for relative protein levels of phosphorylated MEK and total MEK to assess the kinase activity of the immunoprecipitated BRAF.

In experiment [9] the test system is phosphorylated Erk/MAPK. Nature of the experiment: Western blot of phosphorylated Erk/MAPK. It is filed as cell-based, human. As to conditions: 200 μM I3C.
Protocol: Western Blot analyses of samples electrophoretically fractionated on 12% acrylamide gels were carried out as previously described (Wagle et al., J. Clin. Oncol. 2011. 29(22):3085-3096; Nguyen et al., Chem. Biol. Interact. 2010. 186(3):255-266). […] The western blots employed the following primary antibodies: mouse anti-MITF-M (Thermo-scientific), mouse anti-HSP 90 (BD Biosciences), mouse anti-CDK2, rabbit anti-CDK4, rabbit anti-CDK-6, mouse anti-rabbit BRAF, goat anti-LEF-1, rabbit anti-AXIN, mouse anti-BCL2, (Santa Cruz), rabbit anti-P21, mouse anti-Cyclin D1, rabbit anti-MEK-p, rabbit anti-MEK1/2, rabbit anti-GSK3β rabbit anti-LRP6, rabbit anti-LRP6-phospho (Cell signaling), mouse anti-β-catenin (Invitrogen).
Experiment [10] has as its target T1, BRAF-V600E. Nature of the experiment: BRAF kinase assay on BRAF immunoprecipitated from pretreated G-361 cells. It is filed as biochemical. As to conditions: G-361 cells treated 48 hours; 200 μM or 400 μM I3C, 10 μM Vemurafenib. On the procedure:
as §2

Consider two molecules from patent publication US20180369195A1, “COMBINATION THERAPY FOR TREATMENT OF MELANOMA” (The Regents of the University of California, priority 2015, published 2018).

T1 sequence (P15056 whole entry V600E): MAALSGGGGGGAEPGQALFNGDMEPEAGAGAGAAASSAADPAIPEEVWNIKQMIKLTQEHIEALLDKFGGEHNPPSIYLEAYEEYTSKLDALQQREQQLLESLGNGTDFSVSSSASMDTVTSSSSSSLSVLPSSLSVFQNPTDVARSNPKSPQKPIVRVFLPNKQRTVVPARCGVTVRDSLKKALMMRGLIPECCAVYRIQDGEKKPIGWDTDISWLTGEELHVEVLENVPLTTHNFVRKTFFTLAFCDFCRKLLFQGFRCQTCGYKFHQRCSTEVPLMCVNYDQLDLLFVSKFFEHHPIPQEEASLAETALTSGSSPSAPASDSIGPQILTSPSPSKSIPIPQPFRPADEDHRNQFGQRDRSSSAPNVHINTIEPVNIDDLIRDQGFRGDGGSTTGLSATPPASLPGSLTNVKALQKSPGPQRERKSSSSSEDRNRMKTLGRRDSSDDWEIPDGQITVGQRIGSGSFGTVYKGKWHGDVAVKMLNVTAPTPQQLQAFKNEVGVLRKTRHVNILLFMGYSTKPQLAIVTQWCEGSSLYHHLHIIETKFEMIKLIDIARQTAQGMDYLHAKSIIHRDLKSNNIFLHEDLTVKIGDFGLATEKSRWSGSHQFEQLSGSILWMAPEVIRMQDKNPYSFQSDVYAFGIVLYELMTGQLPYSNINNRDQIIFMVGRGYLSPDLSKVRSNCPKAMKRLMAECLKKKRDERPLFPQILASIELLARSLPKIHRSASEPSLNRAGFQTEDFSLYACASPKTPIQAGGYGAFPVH

On to `OCc1cn(Cc2ccccc2)c2ccccc12` [1-benzyl I3C, 1-benzyl indole-3-carbinol], for which the “range of sensitivity across mutation profiles” value in experiment [1] is “much wider range of sensitivity than I3C and Vemurafenib”. In addition, the LRP5/6 levels result in experiment [2] is “significantly downregulated”. The “levels of key cell cycle regulators” value in experiment [3] is “downregulation of key cell cycle regulators like CDK 2, 4, 6”. Also, in [4], the “effect on Wnt signaling pathway in tumor xenograft sections” value was “mimicked the cell culture data”. Also, in [5], the antiproliferative response entry is reported as “No such antiproliferative response”. Moreover, the “LEF1 interactions with the MITF-M promoter” value in experiment [6] was “significantly disrupted nuclear LEF1 interactions with this promoter”.

As to `OCc1c[nH]c2ccccc12` [I3C, indole-3-carbinol], in experiment [7], the CDK4 protein levels entry is “down regulated”. Besides, the “BRAF-V600E activity (phosphorylated MEK), direct in vitro incubation” value in experiment [8] is “strongly down regulated BRAF-V600E activity”. Also, the “phosphorylated Erk/MAPK levels” value is listed as “strongly down regulated” in experiment [9] (G-361 and DM738 cells, 72 hour time course); “down regulated” in experiment [9] (G-361 cells, 48 hours, 10 μM Vemurafenib or 10 μM U0126); “no effect” in [9] (SK-MEL-2 cells, 72 hour time course). The “BRAF-V600E enzymatic activity (phosphorylated MEK) after cellular treatment” value in experiment [10] is “significantly inhibited BRAF-V600E enzymatic activity”.
